Results on one molecule are retold here after patent US6589452B2, “Photochemically controlled photonic crystal diffraction” (University of Pittsburgh, priority 2000, dated 2003).

Common to all, as to assay type: physicochemical
Series [1] in a line: water solubility of the azobenzene derivative. Particulars: compared with non-derivatized azobenzene. An excerpt: In addition, it retains similar photochemical properties as non-derivatized azobenzene.
In a particular embodiment of the invention, an azobenzene derivative, which is modified in order to increase its water solubility, is attached to the reactive PCCA through the reaction of the epoxide groups inside the hydrogel with primary amino groups on the azobenzene derivative. See Example 3. Hereinafter, the functionalized PCCA having azobenzene attached thereto is referred to as “AZO-PCCA”. […] For example, spiropyran may be attached to the gel by directly copolymerizing the spiropyran with the acrylamide. The photosensitive components of the present invention may be synthesized by methods well-known in the art.

Series [2] in a line: photochemical behavior of a water solution of the azobenzene derivative under UV irradiation. Particulars: UV 365 nm, 20 mW, monoexponential fit. An excerpt: In addition, a shoulder arising from the nπ* transition is evident at long wavelength side of the ππ* peak. This peak, due to nπ* transition, at 434 nm becomes dominant when a photostationary state under UV irradiation is reached (mainly cis-azobenzene). The intensity of the nπ* peak increases as the intensity of the ππ* band decreases due to the conversion of trans isomer to cis under UV light (FIG. 1). This is a typical behavior of azobenzene-type molecules. The photochemical behavior of a water solution of the azobenzene derivative of the present invention was determined under UV irradiation (365 nm, 20 mW) and irradiation with visible light ([…], ˜50 mW). Under 488 nm irradiation, the trans-isomer is restored and the photostationary state under visible light is very close to the equilibrium state in dark. When the azobenzene derivative was exposed to 365 nm irradiation, kinetic data fitted well to monoexponential function with the characteristic time of ˜40 seconds. In addition, thermal relaxation in dark follows monoexponential function with characteristic time of about 10 days at 24° C. Furthermore, the photochemical behavior of the azobenzene derivative of the present invention when covalently attached to the functionalized PCCA of the present invention was close to that of the azobenzene derivative in solution. […]

The nature of series [3]: thermal relaxation in the dark (cis-trans azobenzene isomerization). The conditions noted are these: azobenzene derivative in solution; 24° C.; monoexponential. Here is the method: FIG. 3 is a graph showing the characteristic time for UV irradiation and thermal relaxation of the AZO-PCCA. The characteristic time for UV irradiation (trans-cis azobenzene isomerization), which was performed at 365 nm, 10 mW, is ˜50 seconds (curve 1 and 2). The response time of the PCCA diffraction shift could be reduced by increasing the actinic light power. In addition, the characteristic time for thermal relaxation (cis-trans azobenzene isomerization), which was performed by placing the AZO-PCCA in the dark, is ˜10 days (curve 3 and 4).
In addition, a shoulder arising from the nπ* transition is evident at long wavelength side of the ππ* peak. This peak, due to nπ* transition, at 434 nm becomes dominant when a photostationary state under UV irradiation is reached (mainly cis-azobenzene). The intensity of the nπ* peak increases as the intensity of the ππ* band decreases due to the conversion of trans isomer to cis under UV light (FIG. 1). This is a typical behavior of azobenzene-type molecules. The photochemical behavior of a water solution of the azobenzene derivative of the present invention was determined under UV irradiation (365 nm, 20 mW) and irradiation with visible light ([…], ˜50 mW). Under 488 nm irradiation, the trans-isomer is restored and the photostationary state under visible light is very close to the equilibrium state in dark. […]

For `NCc1ccc(N=Nc2ccc(OCC(O)CO)cc2)cc1` (stereo not drawn) [azobenzene derivative, 4-N-aminomethylbenzolazo-4-phenoxy glycerol ether], the water solubility entry in series [1] is “improved water solubility”. Moreover, in series [2], the “characteristic time, 365 nm irradiation (trans-cis)” value is about 40 s. The “characteristic time of thermal relaxation in dark” value in series [3] is listed as “about 10 days”.
